# Test results: US20090043129A1 (priority 2005, published 2009)
# Biological target: T1, Fatty Acid Amide Hydrolase (FAAH) (Rattus norvegicus, UniProt P97612)
# T1 sequence (P97612 1-579): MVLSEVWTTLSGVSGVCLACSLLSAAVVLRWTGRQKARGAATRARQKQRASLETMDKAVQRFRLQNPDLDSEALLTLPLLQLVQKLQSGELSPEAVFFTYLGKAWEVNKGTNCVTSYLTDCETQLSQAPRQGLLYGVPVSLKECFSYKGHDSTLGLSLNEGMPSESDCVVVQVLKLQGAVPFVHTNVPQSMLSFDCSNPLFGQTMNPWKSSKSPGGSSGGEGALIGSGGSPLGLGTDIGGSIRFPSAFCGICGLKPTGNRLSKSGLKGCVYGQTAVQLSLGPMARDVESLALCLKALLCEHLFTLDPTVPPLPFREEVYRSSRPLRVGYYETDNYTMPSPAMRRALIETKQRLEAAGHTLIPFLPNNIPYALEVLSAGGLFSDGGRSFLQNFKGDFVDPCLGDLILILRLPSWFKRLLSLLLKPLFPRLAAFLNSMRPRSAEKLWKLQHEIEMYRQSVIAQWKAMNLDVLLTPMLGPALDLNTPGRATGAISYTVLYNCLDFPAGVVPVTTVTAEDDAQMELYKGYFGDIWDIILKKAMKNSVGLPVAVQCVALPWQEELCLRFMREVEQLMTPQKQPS
# Test: biochemical
# Conditions: rat brain membranes; read-out: FAAH (n.a. class)
# Experimental: Assay for Fatty Acid Amide Hydrolase (FAAH)
# The effect of compounds on the enzymatic hydrolysis of [^14C]anandamide (6 μM) was studied using membranes prepared from rat brain incubated with increasing concentrations of compounds in 50 mM Tris-HCl, pH 9, for 30 minutes at 37° C. (Di Marzo et al., 2002). [^14C]ethanolamine produced from [^14C]anandamide hydrolysis was measured counting the scintillation of the aqueous phase after extraction of the incubation mixture with 2 volumes of CHCl3/CH3OH (2:1 by volume). […]
row,SMILES,IC50
1,"CCCCCCc1ccc(OCCCCCCCCCCC(=O)NCCO)cc1O [Compound 42, 11-(3-Hydroxy-4-hexyl-phenoxy)-undecanoic acid (2-hydroxy-ethyl)-amide]",> 10 µM
2,"CCCCCCc1ccc(O)cc1OCCCCCC(=O)NCCO [Compound 48, 6-(2-Hexyl-5-hydroxy-phenoxy)-hexanoic acid (2-hydroxy-ethyl)-amide]",> 10 µM

# Tested on: Anandamide Membrane Transporter (AMT)
# Test: Anandamide uptake by RBL-2H3 cells
# Assay type: cell-based
# Conditions: read-out: AMT (n.a. class)
# Experimental: Assay for the Anandamide Membrane Transporter (AMT)
# The effect of the compounds on the uptake of anandamide by the RBL-2H3 cells was studied as described (Di Marzo et al., 2002). Cells were incubated with [^14C]anandamide (4 μM) for 5 minutes at 37° C., in the presence or absence of varying concentrations of the inhibitors. Residual [^14C]anandamide in the incubation media after extraction with CHCl3/CH3OH (2:1 by volume) was used as a measure of the anandamide that was taken up by cells. Data are expressed as the concentration that produces 50% of inhibition of anandamide uptake (IC50) calculated with GraphPad.
row,SMILES,IC50
1,"CCCCCCc1ccc(OCCCCCCCCCCC(=O)NCCO)cc1O [Compound 42, 11-(3-Hydroxy-4-hexyl-phenoxy)-undecanoic acid (2-hydroxy-ethyl)-amide]",> 10 µM

# Biological target: T2, CB2 (Rattus norvegicus, UniProt Q9QZN9)
# T2 construct: from tissue; host or cells: rat spleen membranes
# T2 sequence (Q9QZN9 1-360): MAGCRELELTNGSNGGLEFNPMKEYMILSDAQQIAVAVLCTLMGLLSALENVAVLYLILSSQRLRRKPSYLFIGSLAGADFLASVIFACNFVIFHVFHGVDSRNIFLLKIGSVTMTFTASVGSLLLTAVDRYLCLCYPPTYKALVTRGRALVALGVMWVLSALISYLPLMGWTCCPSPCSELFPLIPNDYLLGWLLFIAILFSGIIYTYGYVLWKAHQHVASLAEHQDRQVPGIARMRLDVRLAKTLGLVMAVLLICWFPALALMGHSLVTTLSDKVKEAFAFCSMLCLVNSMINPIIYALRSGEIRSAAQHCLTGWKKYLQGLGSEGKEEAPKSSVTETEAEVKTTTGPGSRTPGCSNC
# Test: Preliminary selection with rat spleen membranes
# Assay type: binding
# Conditions: rat brain and spleen membranes, read-out: CB2 (n.a. class, IC50 in preliminary selection)
row,SMILES,IC50
1,"CCCCCc1cc(O)cc(OCCCCCCCCCCCCCCCC(=O)NCCO)c1 [Compound 27, 16-(3-Hydroxy-5-pentyl-phenoxy)-hexadecanoic acid (2-hydroxy-ethyl)-amide]",> 10 µM
2,"CCCCCc1cc(O)cc(OCCCCCCCCCCCCCCCC(=O)NC2CC2)c1 [Compound 28, 16-(3-Hydroxy-5-pentyl-phenoxy)-hexadecanoic acid cyclopropylamide]",> 10 µM
3,"CCCCCc1cc(O)cc(OCCCCCCCCCCCCCCCC(=O)Nc2ccc(O)cc2)c1 [Compound 29, 16-(3-Hydroxy-5-pentyl-phenoxy)-hexadecanoic acid (4-hydroxy-phenyl)-amide]",> 10 µM
4,"O=C(CCCCCCCCCCCCCCCOc1cccc(O)c1)NCCO [Compound 36, 16-(3-Hydroxy-phenoxy)-hexadecanoic acid (2-hydroxy-ethyl)-amide]",> 10 µM
5,"O=C(CCCCCCCCCCCCCCCOc1cccc(O)c1)NC1CC1 [Compound 37, 16-(3-Hydroxy-phenoxy)-hexadecanoic acid cyclopropylamide]",> 10 µM
6,"CCCCCCc1ccc(OCCCCCCCCCCCCCCCC(=O)Nc2ccc(O)cc2)cc1O [Compound 47, 16-(3-Hydroxy-4-hexyl-phenoxy)-hexadecanoic acid (4-hydroxy-phenyl)-amide]",> 10 µM
7,"CCCCCCc1ccc(O)cc1OCCCCCCCCCCCCCCCC(=O)Nc1ccc(O)cc1 [Compound 56, 16-(2-Hexyl-5-hydroxy-phenoxy)-hexadecanoic acid (4-hydroxy-phenyl)-amide]",> 10 µM

# Tested on: not given
# Test: not given
# Conditions: not given
row,SMILES,melting point
1,CCCCCCc1ccc(OCCCCCC(=O)Nc2ccc(O)cc2)cc1O,128.4 °C
2,CCCCCCc1ccc(O)cc1OCCCCCC(=O)Nc1ccc(O)cc1,106 °C
3,"CCCCCCCCCCCCCCCc1cccc(OCCCCCCCCCCC(=O)NCCO)c1 [Compound 18, 11-(3-Pentadecyl-phenoxy)-undecanoic acid (2-hydroxy-ethyl)-amide]",83 to 85 °C
4,"CCCCCCCCCCCCCCCc1cccc(OCCCCCCCCCCC(=O)NC2CC2)c1 [Compound 19, 11-(3-Pentadecyl-phenoxy)-undecanoic acid cyclopropylamide]",82 °C
5,"CCCCCCCCCCCCCCCc1cccc(OCCCCCCCCCCC(=O)Nc2ccc(O)cc2)c1 [Compound 20, 11-(3-Pentadecyl-phenoxy)-undecanoic acid (4-hydroxy-phenyl)-amide]",107 °C
6,"CCCCCc1cc(O)cc(OCCCCCCCCCCCCCCCC(=O)NCCO)c1 [Compound 27, 16-(3-Hydroxy-5-pentyl-phenoxy)-hexadecanoic acid (2-hydroxy-ethyl)-amide]",84 to 85 °C
7,"CCCCCc1cc(O)cc(OCCCCCCCCCCCCCCCC(=O)NC2CC2)c1 [Compound 28, 16-(3-Hydroxy-5-pentyl-phenoxy)-hexadecanoic acid cyclopropylamide]",91 °C
8,"CCCCCc1cc(O)cc(OCCCCCCCCCCCCCCCC(=O)Nc2ccc(O)cc2)c1 [Compound 29, 16-(3-Hydroxy-5-pentyl-phenoxy)-hexadecanoic acid (4-hydroxy-phenyl)-amide]",89.5 °C
9,"O=C(CCCCCCCCCCCCCCCOc1cccc(O)c1)NCCO [Compound 36, 16-(3-Hydroxy-phenoxy)-hexadecanoic acid (2-hydroxy-ethyl)-amide]",94.5 °C
10,"O=C(CCCCCCCCCCCCCCCOc1cccc(O)c1)NC1CC1 [Compound 37, 16-(3-Hydroxy-phenoxy)-hexadecanoic acid cyclopropylamide]",105.6 °C
11,"CCCCCCc1ccc(OCCCCCCCCCCC(=O)NCCO)cc1O [Compound 42, 11-(3-Hydroxy-4-hexyl-phenoxy)-undecanoic acid (2-hydroxy-ethyl)-amide]",85.3 °C
12,"CCCCCCc1ccc(OCCCCCCCCCCCCCCCC(=O)Nc2ccc(O)cc2)cc1O [Compound 47, 16-(3-Hydroxy-4-hexyl-phenoxy)-hexadecanoic acid (4-hydroxy-phenyl)-amide]",133.2 °C
13,"CCCCCCc1ccc(O)cc1OCCCCCCCCCCCCCCCC(=O)NC1CC1 [Compound 55, 16-(2-Hexyl-5-hydroxy-phenoxy)-hexadecanoic acid cyclopropylamide]",72.8 °C
14,"CCCCCCc1ccc(O)cc1OCCCCCCCCCCCCCCCC(=O)Nc1ccc(O)cc1 [Compound 56, 16-(2-Hexyl-5-hydroxy-phenoxy)-hexadecanoic acid (4-hydroxy-phenyl)-amide]",82.4 °C

# Biological target: human recombinant CB1 receptor (Homo sapiens, UniProt P21554)
# Sequence (P21554 whole entry): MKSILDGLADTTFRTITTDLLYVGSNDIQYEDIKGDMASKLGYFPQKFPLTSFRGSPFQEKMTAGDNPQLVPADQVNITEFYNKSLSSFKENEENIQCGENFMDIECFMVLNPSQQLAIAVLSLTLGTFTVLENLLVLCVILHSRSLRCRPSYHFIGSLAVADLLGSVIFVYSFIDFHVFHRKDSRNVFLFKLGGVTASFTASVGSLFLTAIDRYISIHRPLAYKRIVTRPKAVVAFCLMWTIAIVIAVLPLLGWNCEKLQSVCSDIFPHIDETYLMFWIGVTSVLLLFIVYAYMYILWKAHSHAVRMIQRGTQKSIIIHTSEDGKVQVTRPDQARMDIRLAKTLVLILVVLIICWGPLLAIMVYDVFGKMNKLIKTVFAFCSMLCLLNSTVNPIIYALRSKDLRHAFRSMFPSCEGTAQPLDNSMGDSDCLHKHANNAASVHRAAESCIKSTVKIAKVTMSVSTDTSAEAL
# Test: not given
# Assay type: binding
# Design: purchased Perkin-Elmer; host or cells: COS cells
# Conditions: not given
row,SMILES,Ki
1,"CCCCCCc1ccc(O)cc1OCCCCCCCCCCCCCCCC(=O)NC1CC1 [Compound 55, 16-(2-Hexyl-5-hydroxy-phenoxy)-hexadecanoic acid cyclopropylamide]",5.5 µM

# Same assay, conditions: recombinant human CB1, COS cell membranes
row,SMILES,Ki
1,"CCCCCc1cc(O)cc(OCCCCCCCCCCCCCCCC(=O)NCCO)c1 [Compound 27, 16-(3-Hydroxy-5-pentyl-phenoxy)-hexadecanoic acid (2-hydroxy-ethyl)-amide]",12.5 µM
2,"O=C(CCCCCCCCCCCCCCCOc1cccc(O)c1)NC1CC1 [Compound 37, 16-(3-Hydroxy-phenoxy)-hexadecanoic acid cyclopropylamide]",4.25 µM
3,"O=C(CCCCCCCCCCCCCCCOc1cccc(O)c1)Nc1ccc(O)cc1 [Compound 38, 16-(3-Hydroxy-phenoxy)-hexadecanoic acid (4-hydroxy-phenyl)-amide]",5 µM
4,"CCCCCCc1ccc(O)cc1OCCCCCCCCCCCCCCCC(=O)Nc1ccc(O)cc1 [Compound 56, 16-(2-Hexyl-5-hydroxy-phenoxy)-hexadecanoic acid (4-hydroxy-phenyl)-amide]",3 µM

# Biological target: human recombinant CB2 receptor (Homo sapiens, UniProt P34972)
# Sequence (P34972 whole entry): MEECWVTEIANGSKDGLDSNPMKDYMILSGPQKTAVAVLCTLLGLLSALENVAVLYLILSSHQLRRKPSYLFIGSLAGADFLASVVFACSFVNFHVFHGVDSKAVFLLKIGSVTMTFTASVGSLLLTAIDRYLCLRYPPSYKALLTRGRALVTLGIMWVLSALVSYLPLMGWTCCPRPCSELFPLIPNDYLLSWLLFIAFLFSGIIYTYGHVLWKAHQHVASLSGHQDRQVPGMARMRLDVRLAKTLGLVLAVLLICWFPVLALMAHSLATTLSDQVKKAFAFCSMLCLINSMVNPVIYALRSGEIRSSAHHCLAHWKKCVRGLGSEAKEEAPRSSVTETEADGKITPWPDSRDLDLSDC
# Test: CB2 binding, [3H]CP55,940 displacement, membranes from transfected COS cells
# Design: purchased Perkin-Elmer; host or cells: COS cells
# Conditions: recombinant human CB2, COS cell membranes
row,SMILES,Ki
1,"CCCCCCc1ccc(OCCCCCCCCCCC(=O)NCCO)cc1O [Compound 42, 11-(3-Hydroxy-4-hexyl-phenoxy)-undecanoic acid (2-hydroxy-ethyl)-amide]",2.7 µM
2,"CCCCCCc1ccc(O)cc1OCCCCCCCCCCCCCCCC(=O)NC1CC1 [Compound 55, 16-(2-Hexyl-5-hydroxy-phenoxy)-hexadecanoic acid cyclopropylamide]",2.49 µM
